What is called logD is lipophilicity at a set pH, counting ionised and neutral species. Lower therefore signals lower lipophilicity. By IC50 is commonly meant the midpoint of a concentration-inhibition curve.

The species named for data set [1] is Homo sapiens. Briefly: Selectivity ratio for substrate activity at recombinant human NQO1 to substrate activity at human CPR.
Data set [2] deals with NAD(P)H dehydrogenase [quinone] 1 (Homo sapiens) (UniProt P15559). The data set is described as follows: Substrate activity at recombinant human NQO1 expressed in Escherichia coli assessed as reduction rate by measuring umol of NADPH utilized per umol of enzyme at 10 uM preincubated for 3 mins followed by NADPH addition measured at 2 secs interval for 5 mins by UV-Vis spectroscopy.

In data set [3] the target is T1, NADPH--cytochrome P450 reductase (Homo sapiens, UniProt P16435).
T1 sequence (P16435 whole entry): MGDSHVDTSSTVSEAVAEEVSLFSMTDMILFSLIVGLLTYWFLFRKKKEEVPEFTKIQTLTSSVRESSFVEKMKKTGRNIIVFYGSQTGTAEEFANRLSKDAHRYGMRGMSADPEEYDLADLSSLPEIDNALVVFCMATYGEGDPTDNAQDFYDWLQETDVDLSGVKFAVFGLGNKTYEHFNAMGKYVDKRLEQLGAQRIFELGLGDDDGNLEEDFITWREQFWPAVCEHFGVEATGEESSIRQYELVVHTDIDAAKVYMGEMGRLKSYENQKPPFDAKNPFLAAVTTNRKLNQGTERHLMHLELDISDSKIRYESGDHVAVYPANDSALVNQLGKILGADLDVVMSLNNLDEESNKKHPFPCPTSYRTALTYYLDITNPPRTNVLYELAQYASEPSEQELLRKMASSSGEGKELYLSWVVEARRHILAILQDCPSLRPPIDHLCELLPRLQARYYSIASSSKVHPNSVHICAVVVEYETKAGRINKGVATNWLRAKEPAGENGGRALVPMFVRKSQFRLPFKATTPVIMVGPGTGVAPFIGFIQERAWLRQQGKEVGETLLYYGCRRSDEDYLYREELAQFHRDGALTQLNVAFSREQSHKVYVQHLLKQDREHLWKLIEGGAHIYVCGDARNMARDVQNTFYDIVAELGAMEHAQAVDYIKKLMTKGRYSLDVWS
The data set is described as follows: Substrate activity at human CPR expressed in baculovirus expression system assessed as reduction rate by measuring umol of NADPH utilized per umol of enzyme at 10 uM preincubated for 3 mins followed by NADPH addition measured at 2 secs interval for 5 mins by UV-Vis spectroscopy. It counts as ADME.

Data set [4] in a line: Effective permeability of the compound at pH 7.4 by PAMPA assay. It counts as ADME. The following applies: read-out: Peff. (In general: PAMPA measures passive passage across an artificial lipid membrane.)
Data set [5] is described as follows: Solubility of the compound in diluted HCl buffer at pH 3. It counts as physicochemical.
A short description of data set [6]: Intrinsic solubility of the compound. The following applies: read-out: Intrinsic_solubility. It counts as physicochemical.
Data set [7] is described as follows: Lipophilicity, log D of the compound at pH 7.4. It counts as physicochemical. Particulars: buffer.
Data set [8] deals with NAD(P)H dehydrogenase [quinone] 1 (Homo sapiens) (UniProt P15559). Briefly: Substrate activity at NQO1 in human A549 cells assessed as induction of enzyme-catalyzed lipid peroxidation by measuring MDA equivalents per protein at 10 uM after 24 hrs by TBARS assay. It counts as cell-based.
Data set [9] concerns L02. The data set is described as follows: Induction of intracellular ROS levels in human L02 cells at 10 uM after 1 to 3 hrs by DCFH-DA-based flow cytometry. It counts as cell-based. Particulars: l02, 10 µM. In general terms: A flow cytometer gives signals particle by particle.
Data set [10] deals with A549. The data set is described as follows: Antitumor activity against human A549 cells xenografted in athymic nude mouse assessed as tumor growth inhibition at 50 mg/kg, iv administered every other day for 3 weeks measured every day during compound dosing relative to control. It counts as functional. Particulars: 504 h, read-out: TGI. A general note: A xenograft is tissue or cells of one species grown in another, often human tumour cells in immunodeficient mice.

Data set [11] addresses NAD(P)H dehydrogenase [quinone] 1 (Homo sapiens) (UniProt P15559). The data set is described as follows: Substrate activity at NQO1 in human A549 cells assessed as induction of enzyme-catalyzed ROS production at 10 uM after 1 to 3 hrs by DCFH-DA-based flow cytometry. It counts as cell-based.
Data set [12] is filed under the species Danio rerio. Briefly: Hepatotoxicity in 48 hrs post fertilized transgenic liver zebrafish larvae model expressing LFABP:EGFP protein at 1 uM measured after 48 hrs post dose by fluorescence based assay. The following applies: in vivo. It counts as organism-based.
Data set [13] deals with A549. The data set is described as follows: Antitumor activity against human A549 cells xenografted in athymic nude mouse assessed as tumor growth inhibition at 30 mg/kg, iv administered every other day for 3 weeks measured every day during compound dosing relative to control. The following applies: 504 h, read-out: TGI. It counts as functional.
The subject of data set [14] is A549/TR. The data set is described as follows: Cytotoxicity against human A549/TR cells assessed as cell growth inhibition preincubated for 24 hrs followed by compound washout measured after 72 hrs by MTT assay. It counts as functional, cell-based.

In brackets after ≈: the same amount, converted by molar mass. Activity calls are given as the source filed them. No cut-off for these calls is given here. Bounds are passed on as bounds.

Chain of NAD(P)H dehydrogenase [quinone] 1 (Homo sapiens) (P15559 whole entry): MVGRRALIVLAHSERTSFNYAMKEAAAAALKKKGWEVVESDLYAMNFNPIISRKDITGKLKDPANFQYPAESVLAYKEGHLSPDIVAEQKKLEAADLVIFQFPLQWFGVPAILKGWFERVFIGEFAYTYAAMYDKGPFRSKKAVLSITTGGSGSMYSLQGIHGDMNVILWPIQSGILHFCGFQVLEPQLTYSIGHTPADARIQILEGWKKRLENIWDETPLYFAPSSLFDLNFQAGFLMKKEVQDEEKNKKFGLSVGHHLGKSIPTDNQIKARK

Regarding `Cc1cc2c(cc1C)-c1oc(C(=O)N3CCN(Cc4ccccc4)CC3)c(C)c1C(=O)C2=O`, the Selectivity ratio in [1] was 15.1. Moreover, the Activity in data set [2] is 1360 µmol/min; in data set [3], 90 µmol NADPH/min/µmol enzyme. Further, in data set [4], the Papp was determined as 11.9 ×10⁻⁶ cm/s. Moreover, the solubility was 100 to 500 µg/mL (≈ 226 to 1130 µM) in data set [5] and 41.1 µg/mL (≈ 92.9 µM) in data set [6]. The compound further showed a logD in data set [7] of 4.82.
For the compound `COc1cccc(NCc2oc3c(c2C)C(=O)C(=O)c2cc(C)c(C)cc2-3)c1`, the Activity in [2] is 955 µmol/min.
In the case of `Cc1cc2c(cc1C)-c1oc(CNc3cccc(F)c3)c(C)c1C(=O)C2=O`, in data set [1], the Selectivity ratio was 12. In addition, the Activity in data set [2] is 1340 µmol/min; in [3], 112 µmol NADPH/min/µmol enzyme. For the same compound, the Papp in [4] came to 66.2 ×10⁻⁶ cm/s. In addition, the solubility in data set [5] is 100 to 500 µg/mL (≈ 275 to 1380 µM); in data set [6], 51.2 µg/mL (≈ 141 µM). The logD in data set [7] amounted to 4.21.
With `Cc1cc2c(cc1C)-c1oc(C(=O)N3CCN(c4ccc(F)cc4)CC3)c(C)c1C(=O)C2=O`, the Activity in data set [2] was determined as 1190 µmol/min.
The same measure, in the same setting: next, `COc1ccccc1NCc1oc2c(c1C)C(=O)C(=O)c1cc(C)c(C)cc1-2`: 1040 µmol/min; `Cc1cc2c(cc1C)-c1oc(CNc3ccc(Br)cc3)c(C)c1C(=O)C2=O`: 1150 µmol/min.
For the compound `CC1(C)CCC2=C(O1)c1ccccc1C(=O)C2=O` [LAPACHONE], the Papp in data set [4] came to 46.4 ×10⁻⁶ cm/s. The figures for the solubility in data set [5] and in [6] were below 100 µg/mL and 38 µg/mL (≈ 157 µM), respectively. In addition, the Activity in data set [8] was 15.9 nmol/mg; in [9], “Toxic”; in data set [12], “Toxic”. Also, the inhibition in vivo at 50 mg/kg in data set [10] came to 84.9%. Besides, in data set [11], the outcome was Active. Also, in data set [13], the inhibition in vivo at 30 mg/kg was found to be 78.5%.
Regarding `Cc1cc2c(cc1C)-c1oc(CN3CCN(c4ccccc4)CC3)c(C)c1C(=O)C2=O`, the Activity in data set [2] was 1050 µmol/min.
For the compound `Cc1cc2c(cc1C)-c1oc(CN3CCN(Cc4ccccc4)CC3)c(C)c1C(=O)C2=O`, the Activity in data set [2] was found to be 1190 µmol/min.
On to `Cc1cc2c(cc1C)-c1occ(C)c1C(=O)C2=O`, for which the Activity in data set [3] was 142 µmol NADPH/min/µmol enzyme. Also, the Papp in data set [4] worked out at 43.1 ×10⁻⁶ cm/s. In addition, the figures for the solubility in data set [5] and in data set [6] were below 100 µg/mL and 28.6 µg/mL (≈ 119 µM), respectively. Besides, the logD in data set [7] is 3.65.
Take `CC(=O)O[C@H]1C(=O)[C@@]2(C)[C@H]([C@H](OC(=O)c3ccccc3)[C@]3(O)C[C@H](OC(=O)[C@H](O)[C@@H](NC(=O)c4ccccc4)c4ccccc4)C(C)=C1C3(C)C)[C@]1(OC(C)=O)CO[C@@H]1C[C@@H]2O` [PACLITAXEL]: the IC50 in [14] is 28 µM.
Consider `Cc1cc2c(cc1C)-c1oc(CNc3ccc(Cl)cc3Cl)c(C)c1C(=O)C2=O`, for which, in data set [2], the Activity was determined as 1060 µmol/min.
As to `Cc1cc2c(cc1C)-c1oc(CNc3ccc(F)cc3)c(C)c1C(=O)C2=O`, the Selectivity ratio in data set [1] came to 12.7. Further, the Activity is 1330 µmol/min in [2] and 105 µmol NADPH/min/µmol enzyme in data set [3]. Moreover, in [4], the Papp is 42 ×10⁻⁶ cm/s. The values for the solubility in data set [5] and in data set [6] were 100 to 500 µg/mL (≈ 275 to 1380 µM) and 48.5 µg/mL (≈ 133 µM), respectively. This compound also had a logD in [7] of 4.03.
`Cc1cc2c(cc1C)-c1oc(C(=O)Nc3ccc(F)cc3)c(C)c1C(=O)C2=O`: in data set [2], the Activity was found to be 1260 µmol/min.
The same measure, in the same setting: next, `Cc1cc2c(cc1C)-c1oc(CNc3ccc(F)cc3F)c(C)c1C(=O)C2=O`: 1180 µmol/min.
Same read-out and setting: next, `Cc1cc2c(cc1C)-c1oc(CNc3ccc(C#N)cc3)c(C)c1C(=O)C2=O`: 898 µmol/min; `Cc1cc2c(cc1C)-c1oc(CNc3ccc(F)c(Cl)c3)c(C)c1C(=O)C2=O`: 940 µmol/min.
Turning to `Cc1cc2c(cc1C)-c1oc(CN3CCN(c4ccc(F)cc4)CC3)c(C)c1C(=O)C2=O`, the Selectivity ratio in data set [1] worked out at 9.19. Besides, the Activity in data set [2] was 1460 µmol/min; in [3], 159 µmol NADPH/min/µmol enzyme. For the same compound, in data set [4], the Papp was found to be 28.3 ×10⁻⁶ cm/s. Also, the solubility was 500 to 1000 µg/mL (≈ 1160 to 2310 µM) in [5] and 151 µg/mL (≈ 349 µM) in data set [6]. Further, in data set [7], the logD worked out at 2.89.
Consider `COc1ccc(NCc2oc3c(c2C)C(=O)C(=O)c2cc(C)c(C)cc2-3)cc1`, for which the Activity in data set [2] was 1120 µmol/min.
`Cc1cc2c(cc1C)-c1oc(CNCc3ccc(F)cc3)c(C)c1C(=O)C2=O`: in data set [2], the Activity worked out at 1200 µmol/min.
As for `Cc1cc2c(cc1C)-c1oc(C(=O)NCc3ccc(F)cc3)c(C)c1C(=O)C2=O`, the Activity in [2] was found to be 1290 µmol/min.
On to `Cc1cc2c(cc1C)-c1oc(CNc3ccc(Cl)c(Cl)c3)c(C)c1C(=O)C2=O`, for which, in [2], the Activity was 847 µmol/min.
`Cc1cc2c(cc1C)-c1oc(CNc3ccc(F)cc3C)c(C)c1C(=O)C2=O`: the Selectivity ratio in [1] came to 10.3. Further, the Activity in data set [2] is 1320 µmol/min; in data set [3], 127 µmol NADPH/min/µmol enzyme. Further, the solubility in data set [5] is below 100 µg/mL; in [6], 33.1 µg/mL (≈ 87.7 µM). The pH-dependent lipophilicity (logD) in [7] turned out to be 3.31.
